We go through 30 compounds from PubChem BioAssay AID1117324 (Cheminformatics & Chemogenomics Research Group (CCRG), …, 2015).

Calls of active or inactive are those of the source. No rule for the calls is given here. Bounds are passed on as bounds.

In this assay the test system is VEGF-stimulated ADSC/ECFC co-culture, nuclear area imaging. Kind of assay: nuclear area loss in endothelial-stromal co-culture, dose response, cell-based, VEGF stimulation, IC50 (AID 1117324).
The IC50 is the concentration needed to halve the response being measured. For the compound `CC(=O)Nc1ccn(C2COC(COC(=O)c3ccccc3)O2)c(=O)n1` (stereo not given), the IC50 was > 10 µM (inactive).

As for `COC(=O)C1=C(C)NC(C)=C(C(=O)OCCN2CCN(C(c3ccccc3)c3ccccc3)CC2)C1c1cccc([N+](=O)[O-])c1` (stereo not given), the IC50 was > 10 µM (inactive).

In the case of `CCOC(=O)C1=C(C)NC(C)=C(C(=O)OCC)C1c1ccccc1/C=C/C(=O)OC(C)(C)C`, the IC50 was > 10 µM (inactive).

Turning to `CN(C)C(=O)Oc1cccc([N+](C)(C)C)c1`, the IC50 is > 10 µM (inactive).

As for `O=C1C(=O)c2ccccc2C(O)=C1C1CCC(c2ccc(Cl)cc2)CC1` (stereo not given), the IC50 is > 10 µM (inactive).

With `O=C(CCN1CCC(c2ccccc2)C1)c1ccc2c(c1)OCCO2` (stereo not given), the IC50 was > 10 µM (inactive).

With `O=[N+]([O-])c1cc(I)c(O)c(I)c1`, the IC50 was > 10 µM (inactive).

For the compound `Oc1ccc2[nH]cc(CCCCN3CC=C(c4ccccc4)CC3)c2c1`, the IC50 is > 10 µM (inactive).

As to `COc1ccc2cc3[n+](cc2c1OC)CCc1cc2c(cc1-3)OCO2`, the IC50 is > 10 µM (inactive).

`Cc1onc(-c2c(Cl)cccc2Cl)c1C(=O)Cl`: the IC50 is > 10 µM (inactive).

In the case of `O=C(O)C1(C(=O)O)CCC1.[NH2-].[NH2-].[Pt+2]`, the IC50 was > 10 µM (inactive).

Consider `CCCCCCCCCCCCCCCCCCOP(=O)([O-])OC1CC[N+](C)(C)CC1`, for which the IC50 is > 10 µM (inactive).

Consider `C=C(C)[C@H]1Cc2c(ccc3c2O[C@@H]2COc4cc(OC)c(OC)cc4[C@@H]2C3=O)O1`, for which the IC50 is > 10 µM (inactive).

For `C[C@@]12C(=O)OC(=O)[C@]1(C)C1CCC2O1`, the IC50 is 8.33 µM (inactive).

Take `O=C1C2CC=CCC2C(=O)N1SC(Cl)(Cl)Cl` (stereo not given): the IC50 is > 10 µM (inactive).

`Cc1cccc(C)c1NC(=O)CC12CCCN1CCC2`: the IC50 is > 10 µM (inactive).

As for `CCCCC1C(=O)N(c2ccccc2)N(c2ccc(O)cc2)C1=O` (stereo not given), the IC50 was 8.83 µM (inactive).

For `COc1ccccc1N1CCN(CC(O)COc2cc(OC)c(OC)c(OC)c2)CC1` (stereo not given), the IC50 was > 10 µM (inactive).

Regarding `COc1cc(NCc2ccc3nc(N)nc(N)c3c2C)cc(OC)c1OC`, the IC50 was > 10 µM (inactive).

Take `CC1(C)[C@H](C=C(Cl)Cl)[C@@H]1C(=O)OCc1c(F)c(F)cc(F)c1F`: the IC50 was > 10 µM (inactive).

With `CCCOc1ccc2nc(NC(=O)OC)[nH]c2c1`, the IC50 is > 10 µM (inactive).

Take `COP(=S)(OC)Oc1ccc(Sc2ccc(OP(=S)(OC)OC)cc2)cc1`: the IC50 is > 10 µM (inactive).

For the compound `CC(=O)O[C@@]12CO[C@@H]1C[C@H](O)[C@@]1(C)C(=O)[C@H](O)C3=C(C)[C@@H](OC(=O)[C@H](O)[C@@H](NC(=O)OC(C)(C)C)c4ccccc4)C[C@@](O)([C@@H](OC(=O)c4ccccc4)[C@H]21)C3(C)C`, the IC50 was > 10 µM (inactive).

For `COC(=O)Nc1nc2ccc(C(=O)c3ccccc3)cc2[nH]1`, the IC50 was > 10 µM (inactive).

Turning to `CC(=O)Oc1ccc(C2(c3ccc(OC(C)=O)cc3)C(=O)Nc3ccccc32)cc1`, the IC50 is > 10 µM (inactive).

With `NCCNc1ccc(NCCN)c2c1C(=O)c1ccncc1C2=O`, the IC50 is > 10 µM (inactive).

Turning to `OC[C@H]1O[C@@H](n2cnc3c(=S)nc[nH]c32)[C@H](O)[C@@H]1O`, the IC50 was > 10 µM (inactive).

With `CCC(C)(C)C(=O)O[C@H]1C[C@@H](C)C=C2C=C[C@H](C)[C@H](CC[C@@H]3C[C@@H](O)CC(=O)O3)[C@H]21`, the IC50 was 5.13 µM (inactive).

For the compound `Cc1c(C)c2c(c(C)c1O)CCC(C)(COc1ccc(CC3SC(=O)NC3=O)cc1)O2` (stereo not given), the IC50 was > 10 µM (inactive).

For the compound `O=C(O)CCC(=O)OC[C@@H](NC(=O)C(Cl)Cl)[C@H](O)c1ccc([N+](=O)[O-])cc1`, the IC50 is > 10 µM (inactive).
